Measurements as given in patent US20230278972A1, “SUBSTITUTED HALOALKYL SULFONANILIDE HERBICIDES” (FMC Corporation, priority 2020, published 2023).

Assays:
Assay type in all cases: in vivo
kochia (Bassia scoparia) [1] = assay: Test A preemergence, kochia; conditions: Preemergence; for Kochia plant response rating: 125 g ai/ha, visual injury on 0 to 100 scale (0 no effect, 100 complete control), approximately 10 days; for Plant response rating, Kochia: 500 g ai/ha, 0 to 100 scale (0 no effect, 100 complete control)
Summary of the method: (§1)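 Formulated with a surfactant in a non-phytotoxic solvent, compounds are applied to loam–sand pots, either to bare soil immediately after seeding (preemergence) or to seedlings of 2 to 10 cm bearing one to two leaves (postemergence).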

[2] = test system: barnyardgrass (Echinochloa crus-galli); assay: Test A preemergence, barnyardgrass; conditions: Preemergence; for Barnyardgrass plant response rating: 125 g ai/ha, visual injury on 0 to 100 scale (0 no effect, 100 complete control), approximately 10 days; for Plant response rating, Barnyardgrass: 500 g ai/ha, 0 to 100 scale (0 no effect, 100 complete control)
Summary of the method: as §1

[3] = test system: ragweed (common ragweed, Ambrosia artemisiifolia); assay: Test A preemergence, ragweed; conditions: Preemergence; for Ragweed plant response rating: 125 g ai/ha, visual injury on 0 to 100 scale (0 no effect, 100 complete control), approximately 10 days; for Plant response rating, Ragweed: 500 g ai/ha, 0 to 100 scale (0 no effect, 100 complete control)
Summary of the method: as §1

[4] = test system: Foxtail, Giant (giant foxtail, Setaria faberi); assay: Test A postemergence, Foxtail, Giant; conditions: Postemergence, 0 to 100 scale (0 no effect, 100 complete control); for Plant response rating, Foxtail, Giant: 125 g ai/ha, visual injury approx. 10 days; for Foxtail, Giant plant response rating: 500 g ai/ha, visual injury vs untreated controls after approx. 10 days
Summary of the method: as §1

kochia (Bassia scoparia) [5] = assay: Test A postemergence, kochia; conditions: Postemergence, 0 to 100 scale (0 no effect, 100 complete control); for Plant response rating, Kochia: 125 g ai/ha, visual injury approx. 10 days; for Kochia plant response rating: 500 g ai/ha, visual injury vs untreated controls after approx. 10 days
Summary of the method: as §1

[6] = test system: Foxtail, Giant (giant foxtail, Setaria faberi); assay: Test A preemergence, Foxtail, Giant; conditions: Preemergence; for Foxtail, Giant plant response rating: 125 g ai/ha, visual injury on 0 to 100 scale (0 no effect, 100 complete control), approximately 10 days; for Plant response rating, Foxtail, Giant: 500 g ai/ha, 0 to 100 scale (0 no effect, 100 complete control)
Summary of the method: as §1

[7] = test system: Ryegrass, Italian (Italian ryegrass, Lolium multiflorum); assay: Test A preemergence, Ryegrass, Italian; conditions: Preemergence; for Ryegrass, Italian plant response rating: 125 g ai/ha, visual injury on 0 to 100 scale (0 no effect, 100 complete control), approximately 10 days; for Plant response rating, Ryegrass, Italian: 500 g ai/ha, 0 to 100 scale (0 no effect, 100 complete control)
Summary of the method: as §1

corn (Zea mays) = assay: Test A postemergence, corn; conditions: Postemergence, 0 to 100 scale (0 no effect, 100 complete control); for Plant response rating, Corn: 125 g ai/ha, visual injury approx. 10 days; for Corn plant response rating: 500 g ai/ha, visual injury vs untreated controls after approx. 10 days
Summary of the method: as §1

[8] = test system: galium (catchweed bedstraw, Galium aparine); assay: Test A postemergence, galium; conditions: Postemergence, 0 to 100 scale (0 no effect, 100 complete control); for Plant response rating, Galium: 125 g ai/ha, visual injury approx. 10 days; for Galium plant response rating: 500 g ai/ha, visual injury vs untreated controls after approx. 10 days
Summary of the method: (§2)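 After sowing into a sand-amended loam, pots for the preemergence test were treated by spraying directly onto soil. In parallel, seedlings at the one- to two-leaf stage and 2 to 10 cm tall were treated postemergence with the identical surfactant-containing formulation.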

[9] = test system: wheat (Triticum aestivum); assay: Test A postemergence, wheat; conditions: Postemergence, 0 to 100 scale (0 no effect, 100 complete control); for Plant response rating, Wheat: 125 g ai/ha, visual injury approx. 10 days; for Wheat plant response rating: 500 g ai/ha, visual injury vs untreated controls after approx. 10 days
Summary of the method: as §2

[10] = test system: ragweed (common ragweed, Ambrosia artemisiifolia); assay: Test A postemergence, ragweed; conditions: Postemergence, 0 to 100 scale (0 no effect, 100 complete control); for Plant response rating, Ragweed: 125 g ai/ha, visual injury approx. 10 days; for Ragweed plant response rating: 500 g ai/ha, visual injury vs untreated controls after approx. 10 days
Summary of the method: as §1

[11] = test system: Ryegrass, Italian (Italian ryegrass, Lolium multiflorum); assay: Test A postemergence, Ryegrass, Italian; conditions: Postemergence, 0 to 100 scale (0 no effect, 100 complete control); for Plant response rating, Ryegrass, Italian: 125 g ai/ha, visual injury approx. 10 days; for Ryegrass, Italian plant response rating: 500 g ai/ha, visual injury vs untreated controls after approx. 10 days
Summary of the method: as §1

[12] = test system: pigweed (Amaranthus retroflexus); assay: Test A postemergence, pigweed; conditions: Postemergence, 0 to 100 scale (0 no effect, 100 complete control); for Plant response rating, Pigweed: 125 g ai/ha, visual injury approx. 10 days; for Pigweed plant response rating: 500 g ai/ha, visual injury vs untreated controls after approx. 10 days
Summary of the method: as §1

[13] = test system: blackgrass (Alopecurus myosuroides); assay: Test A postemergence, blackgrass; conditions: Postemergence, 0 to 100 scale (0 no effect, 100 complete control); for Plant response rating, Blackgrass: 125 g ai/ha, visual injury approx. 10 days; for Blackgrass plant response rating: 500 g ai/ha, visual injury vs untreated controls after approx. 10 days
Summary of the method: as §1

[14] = test system: pigweed (Amaranthus retroflexus); assay: Test A preemergence, pigweed; conditions: for Pigweed plant response rating: 125 g ai/ha, visual injury on 0 to 100 scale (0 no effect, 100 complete control), approximately 10 days; for Plant response rating, Pigweed: 500 g ai/ha, 0 to 100 scale (0 no effect, 100 complete control)
Excerpt: Seeds of plant species selected from barnyardgrass (Echinochloa crus-galli), kochia (Bassia scoparia), ragweed (common ragweed, Ambrosia artemisiifolia), Ryegrass, Italian (Italian ryegrass, Lolium multiflorum), Foxtail, Giant (giant foxtail, Setaria faberi), and pigweed (Amaranthus retroflexus) were planted into a blend of loam soil and sand and treated preemergence with a directed soil spray using test chemicals formulated in a non-phytotoxic solvent mixture which included a surfactant. At the same time, plants selected from these weed species and also wheat (Triticum aestivum), corn (Zea mays), blackgrass (Alopecurus myosuroides), and galium (catchweed bedstraw, Galium aparine) were planted in pots containing the same blend of loam soil and sand and treated with postemergence applications of test chemicals formulated in the same manner. Plants ranged in height from 2 to 10 cm and were in the one- to two-leaf stage for the postemergence treatment. […] A dash (-) response means no test result.

| SMILES | Kochia plant response rating (kochia (Bassia scoparia) [1]) | Plant response rating, Kochia (kochia (Bassia scoparia) [1]) | Barnyardgrass plant response rating [2] | Plant response rating, Barnyardgrass [2] | Ragweed plant response rating [3] | Plant response rating, Ragweed [3] | Plant response rating, Foxtail, Giant [4] | Foxtail, Giant plant response rating [4] | Plant response rating, Kochia (kochia (Bassia scoparia) [5]) | Kochia plant response rating (kochia (Bassia scoparia) [5]) | Foxtail, Giant plant response rating [6] | Plant response rating, Foxtail, Giant [6] | Ryegrass, Italian plant response rating [7] | Plant response rating, Ryegrass, Italian [7] | Plant response rating, Corn (corn (Zea mays)) | Corn plant response rating (corn (Zea mays)) | Plant response rating, Galium [8] | Galium plant response rating [8] | Plant response rating, Wheat [9] | Wheat plant response rating [9] | also measured |
| --- | --- | --- | --- | --- | --- | --- | --- | --- | --- | --- | --- | --- | --- | --- | --- | --- | --- | --- | --- | --- | --- |
| Cc1cc(C)c(-c2cc(Cl)nn(C)c2=O)cc1NS(=O)(=O)C(F)(F)F [Compound 72] | 100 | 100 | 90 | 100 | 80 | 90 | 90 | 90 | 40 | 90 | 100 | 100 | 90 | 100 | 0 | 50 | 70 | 90 | 60 | 70 | Plant response rating, Ragweed [10]: 20; Ragweed plant response rating [10]: 70; Plant response rating, Ryegrass, Italian [11]: 60; Ryegrass, Italian plant response rating [11]: 80; Plant response rating, Pigweed [12]: 60; Pigweed plant response rating [12]: 80; Plant response rating, Blackgrass [13]: 50; Blackgrass plant response rating [13]: 80; Pigweed plant response rating [14]: 80; Plant response rating, Pigweed [14]: 100 |
| Cc1cc(C)c(N(S(C)(=O)=O)S(=O)(=O)C(F)(F)F)cc1-c1ccnn(C)c1=O [Compound 73] | 80 | 90 | 90 | 90 | 80 | 80 | 80 | 90 | 10 | 70 | 100 | 100 | 90 | 100 | 10 | 70 | 90 | 90 | 60 | 70 | Plant response rating, Ragweed [10]: 20; Ragweed plant response rating [10]: 80; Plant response rating, Ryegrass, Italian [11]: 60; Ryegrass, Italian plant response rating [11]: 90; Plant response rating, Pigweed [12]: 60; Pigweed plant response rating [12]: 80; Plant response rating, Blackgrass [13]: 40; Blackgrass plant response rating [13]: 80; Pigweed plant response rating [14]: 90; Plant response rating, Pigweed [14]: 100 |
